Legend:
muscle = experiment: Gene expression in muscle (qPCR); assay type: in vivo, mouse
Procedure: FIG. 31. Osteocalcin treatment increases muscle function in young and old WT mice. (A-B) Performance during endurance exercise of 3 month-old WT, Gprc6af/f and Gprc6aMck−/− female mice treated with Ocn (n=6-10 per group). (C) Performance during endurance exercise of 12 and 15 month-old WT female mice treated with Ocn (n=6-10 per group). (D) Western blot analysis of Akt phosphorylation (Ser473) in muscles of WT mice injected with Ocn (500 ng/g) after a single bout of exercise. (E) Western blot analysis of AMPK phosphorylation ([…]) in muscles of WT mice injected with Ocn (500 ng/g) after a single bout of exercise. (F) Western blot analysis of HSL phosphorylation (Ser563) in muscles of WT mice injected with Ocn (500 ng/g) after a single bout of exercise. (G) Uptake of ^3H-2-DG in glycolytic (Gly—white quadriceps) and oxidative (Ox—red quadriceps) muscles after a single bout of exercise in 15 month-old WT mice receiving Ocn before running (n=5 per group). (H) Performance during endurance exercise of 10 month-old WT mice receiving Ocn for 28 days (n=7 per group). (I) Expression of Cd36, Fatp1 and Cpt1b in gastrocnemius of 10 month-old WT mice receiving Ocn for 28 days (n=7 per group). (J) Western blot analysis of Akt phosphorylation (Ser473) in muscles of WT mice receiving Ocn for 28 days (n=7 per group). (K) Schematic representation of how osteocalcin signaling in myofibers and IL-6 cooperate to increase exercise capacity.
Serum osteocalcin, PINP, CTX, and insulin levels were measured using ELISA assays. Blood glucose level was measured using an Accu-Check glucometer. Urine 3-MHT was measured as previously described (Aranibar et al., 2011, Anal. Biochem. 410:84-91). Determination of cAMP accumulation was performed using a commercial kit (R&D). For gene expression, 1 μg of total RNA was reverse transcribed into cDNA. qPCR analyses were performed using a SYBER green master mix (Applied Biosciences) and a CFX-Connect real time PCR (Bio-Rad). Relative expression levels of each gene were normalized to that of Hprt or Gapdh. […]

Osteocalcin−/− mice = experiment: Behavioral tests of adult Osteocalcin−/− offspring of osteocalcin-injected pregnant Osteocalcin−/− mothers; assay type: in vivo, mouse; conditions: 240 ng/day once a day to pregnant mothers, E0.5 to E18.5
Procedure: FIG. 13. Maternal osteocalcin determines spatial learning and memory in adult offspring. (A-F) DLT (A), EPMT (B), OFT (C), FST (D), TST (E), and MWMT (F) performed in 3-month-old Osteocalcin^−/− mice born from Osteocalcin^−/− mothers injected once a day with vehicle or recombinant uncarboxylated osteocalcin (240 ng/day) during pregnancy compared to WT mice. (G) Surface of the lateral ventricle over brain area (%) of E18.5 hippocampi coronal sections of WT embryos originating from WT mothers and Osteocalcin^−/− embryos originating from osteocalcin-injected Osteocalcin^−/− mothers. (H) Number of apoptotic cells (stained by TUNEL assay) of E18.5 hippocampi coronal sections of WT embryos originating from WT mothers and Osteocalcin^−/− embryos originating from Osteocalcin^−/− mothers injected with osteocalcin (240 ng/day). […]
For osteocalcin delivery to pregnant mice, IP injections (240 ng/day) were performed as soon as a plug was present daily until delivery (E0.5-E18.5). […] Leptin and osteocalcin content in sera and tissues were determined by ELISA.
Spatial memory was assessed with Morris water maze (MWM) setup (Morris, 1981, Nature 297:681-683) using a training protocol adapted for mice (D'Hooge et al., 2005, J. Soc. Neurosci. 25:6539-6549). […] Spatial learning is assessed across repeated trials (4 trials/day for 10 days). […]

Substance: uncarboxylated osteocalcin: Recombinant uncarboxylated mouse osteocalcin, bacterially produced, purified on glutathione beads and cleaved from the GST subunit by thrombin (YLGASVPSPDPLEPTREQCELNPACDELSDQYGLKTAYKRIYGITI)
- expression in muscles of Glut1 (muscle; at rest or after exercise): did not affect
- expression in muscles of Glut4 (muscle; at rest or after exercise): did not affect
- expression in muscle of Fatp1 (muscle; mini-pumps 90 ng/hour for 28 days): increase
- anxiety or depression phenotypes of the offspring (Osteocalcin−/− mice): did not have any beneficial effect
- deficit in learning and memory of the offspring (Osteocalcin−/− mice): rescued over two third
